Source: PubChem BioAssay (NCI)
Several values for one entry are separate records, joined by “and”; a condition that tells them apart may be missing. Equal entries are not always repeated.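 Five compound concentrations were applied to cells in 96-well plates for 48 hours; endpoints were derived by simple linear interpolation of the resulting dose-response curve. Abbreviation: GI50, concentration required for 50% inhibition of growth. TGI: total growth inhibition.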

Experiments:
Assay in all cases: NCI anticancer screen, dose series, 48 h
[1] = system: ACHN renal
[2] = system: HT29 colon
[3] = system: M14 melanoma
[4] = system: MALME-3M melanoma
[5] = system: OVCAR-5 ovarian
[6] = system: SK-MEL-2 melanoma
[7] = system: TK-10 renal
[8] = system: UACC-257 melanoma
[9] = system: RXF 393 renal
[10] = system: T-47D breast

| SMILES | TGI [1] | TGI [2] | TGI [3] | TGI [4] | TGI [5] | TGI [6] | TGI [7] | TGI [8] | GI50 [1] | GI50 [2] | GI50 [3] | GI50 [4] | GI50 [5] | GI50 [9] | TGI [9] | GI50 [10] | TGI [10] | GI50 [7] | GI50 [8] | GI50 [6] |
| --- | --- | --- | --- | --- | --- | --- | --- | --- | --- | --- | --- | --- | --- | --- | --- | --- | --- | --- | --- | --- |
| CN(C)CCN1N=Nc2cccc3cccc1c23 | > 100 µM | > 100 µM | > 100 µM | > 100 µM | > 100 µM | > 100 µM | > 100 µM | > 100 µM |  |  |  |  |  |  |  |  |  |  |  |  |
| Cc1cc(S(=O)(=O)Nc2nnc(-c3ccco3)c(-c3ccco3)n2)c(SCc2ccccc2)cc1Cl | 41.9 µM | 47.1 µM | 55.5 µM | 43.9 µM | 49.8 µM |  | 74.8 µM | 67.6 µM | 20.2 µM | 23.1 µM | 25.8 µM | 19.8 µM | 25.6 µM | 22.8 µM | 47.6 µM | 25.2 µM | 48.6 µM | 26.7 µM | 25.9 µM |  |
| CN(C)CCCNC(=O)c1cc(NC(=O)c2cc(NC(=O)CCCN3c4ccccc4C=Cc4ccccc43)cn2C)cn1C | 33.6 µM | > 100 µM | > 100 µM |  | 46.9 µM |  | 13.9 µM | 30.6 µM | 14.7 µM | 3.59 µM | 2.97 µM |  | 19.7 µM | 8.61 µM | 85 µM | 17.1 µM | > 100 µM | 2.74 µM | 4.5 µM |  |
| Cc1c2cc[n+](C)cc2c(C)c2c1[nH]c1ccc(OC(C)C)cc12 | > 100 µM | 18.5 µM and 24.4 µM | 35 µM and 26.7 µM | 3.89 µM and 5.25 µM | > 100 µM and 67.3 µM | 3.94 µM and 8.68 µM | > 100 µM | 8.06 µM and 11.7 µM |  |  |  |  |  | 7.26 µM and 20.4 µM | > 100 µM |  |  |  |  |  |
| Nc1ccc(CCN2CCN(c3cccc(C(F)(F)F)c3)CC2)cc1 | > 100 µM | > 100 µM | > 100 µM | > 100 µM | > 100 µM |  | > 100 µM | > 100 µM |  |  |  |  |  |  | > 100 µM |  |  |  |  |  |
| COc1cccc(/C=C\c2cc(OC)c(OC)c(OC)c2)c1 | > 100 µM | 67.9 µM | > 100 µM | 42.8 µM | 63.6 µM |  |  | 47.3 µM |  |  |  |  |  |  |  |  |  |  |  |  |
| O=c1oc2ccccc2c(Cl)c1Cl | 5.92 µM | 4.85 µM | 14.1 µM | 12.4 µM | 30.1 µM |  | 3.7 µM | 5.39 µM | 2.49 µM | 2.25 µM | 3.47 µM | 2.23 µM | 14.7 µM | 1.95 µM | 4.31 µM | 2.38 µM | 6.87 µM | 1.88 µM | 2.24 µM |  |
| CCC12CCC(O)C1N(C)CCC2Sc1ccccc1 (stereo unspecified) | > 100 µM | > 100 µM | > 100 µM | > 100 µM |  | > 100 µM | > 100 µM | > 100 µM |  |  |  |  |  |  | > 100 µM |  |  |  |  |  |
| COc1ccc(/C=C\c2cc(OC)c(OC)c(OC)c2)cc1NC(=O)[C@@H](N)CO | > 100 µM | 20.5 µM | > 100 µM |  | > 100 µM | > 100 µM | > 100 µM | > 100 µM | 0.0268 µM | < 0.0173 µM | 0.0123 µM |  | < 0.023 µM | < 0.01 µM | 26.7 µM |  |  | 19.3 µM | 27.1 µM | 0.0198 µM |
| CC(C)SC1SCC2C(=O)N(C)C3(CC3C)C(=O)OCC(NC(=O)c3nc4ccccc4cc3O)C(=O)NC(C)C(=O)N(C)C1C(=O)N(C)C1(CC1C)C(=O)OCC(NC(=O)c1nc3ccccc3cc1O)C(=O)NC(C)C(=O)N2C (stereo unspecified) | > 100 µM | 2.88 µM | < 0.0001 µM |  |  |  | < 0.0001 µM | < 0.0001 µM |  |  |  |  |  |  | < 0.0001 µM |  | > 100 µM |  |  |  |
| Cc1c(C(=O)N/N=C/c2ccc(O)cc2)nnn1-c1ccnc2c(C(F)(F)F)cccc12 | > 100 µM |  | > 100 µM |  | > 100 µM | > 100 µM | > 100 µM | > 100 µM | 41.1 µM |  | > 100 µM |  | > 100 µM | 5.22 µM | 34.6 µM | 92.5 µM | > 100 µM | > 100 µM | > 100 µM | > 100 µM |
| COCC1N=C(c2ccc(OC)c(OCc3ccccc3)c2OC)O[C@H]1c1ccccc1 (stereo partly specified) | 52.4 µM | 59.7 µM | 35.2 µM |  | 71.2 µM | 53.3 µM | > 100 µM |  |  |  |  |  |  |  | 97.3 µM |  |  |  |  |  |
| O=C(Nc1ccccc1)O/N=C1/CCCC/C1=C\c1ccccc1 | 30.5 µM | 95.1 µM | 32.8 µM |  | 63.9 µM | 29.2 µM | 31.7 µM | 35.1 µM |  |  |  |  |  |  | 32 µM |  |  |  |  |  |
| O=[N+]([O-])c1ccc2c(c1)OCCOCCOc1ccc([N+](=O)[O-])cc1OCCOCCO2 | > 100 µM | > 100 µM | > 100 µM | > 100 µM | > 100 µM | > 100 µM | > 100 µM | > 100 µM |  |  |  |  |  |  | > 100 µM |  |  |  |  |  |
| COC(=O)C1Cc2c(n(C)c3ccccc23)C(c2ccccc2)N1 (stereo unspecified) | > 100 µM | > 100 µM | > 100 µM | > 100 µM | > 100 µM | > 100 µM | > 100 µM | 32 µM |  |  |  |  |  |  |  |  |  |  |  |  |
| C=CC[P@@]1(=O)O[C@H](c2ccccc2)C(C)N1C(C)C (stereo partly specified) | > 100 µM | > 100 µM | > 100 µM | > 100 µM | > 100 µM |  | > 100 µM |  |  |  |  |  |  |  | > 100 µM |  |  |  |  |  |
| O=C(Nc1cccc(C2=NCCN2)c1)c1ccc(OCCCOc2ccc(C(=O)Nc3cccc(C4=NCCN4)c3)cc2)cc1 | > 100 µM |  | > 100 µM |  | 20.4 µM |  | 35.3 µM |  | 21.8 µM |  | 2.88 µM |  | 3.51 µM | 5.78 µM | > 100 µM |  |  | 13.2 µM |  |  |
| O=C(Oc1cccc(Nc2ncnc3ccccc23)c1)c1ccccc1Cl | 62 µM | > 100 µM | > 100 µM | 57.1 µM | > 100 µM |  | 37.8 µM | 57.1 µM | 23.1 µM | 27.4 µM | 39.7 µM | 23.9 µM | 32.3 µM | 24.8 µM | 70.6 µM | 29.2 µM | > 100 µM | 8.72 µM | 26.6 µM |  |
| O=C1C(Cl)=C(Oc2ccccc2)C(=O)c2ccccc21 | 3.14 µM | 12.3 µM | 22 µM | 3.41 µM | 31.7 µM | 19.4 µM | 3.41 µM | 14.1 µM | 1.63 µM | 3.09 µM | 8.55 µM | 1.6 µM | 16.7 µM | 2.75 µM | 6.84 µM |  |  | 1.87 µM | 4.65 µM | 6.56 µM |
